From ChEMBL document CHEMBL5325456, “5-(4-Hydroxyphenyl)-3H-1,2-dithiole-3-thione derivatives of brefeldin A: Design, synthesis and cytotoxicity in MDA-MB-231 human breast cancer cells” (Bioorg Med Chem, 2023)
pIC50: −log10 of the molar value. Calls of active or inactive are those of the source. The rule behind the calls is not given here.

Experiments:
A549 = test: Antiproliferative activity against human A549 cells assessed as reduction in cell viability incubated for 48 hrs by CCk-8 assay; type: functional, cell-based; settings: A549, 48 h
DU-145 = test: Antiproliferative activity against human DU-145 cells assessed as reduction in cell viability incubated for 48 hrs by CCk-8 assay; type: functional, cell-based; settings: DU-145, 48 h
HeLa = test: Antiproliferative activity against human HeLa cells assessed as reduction in cell viability incubated for 48 hrs by CCk-8 assay; type: functional, cell-based
HepG2 = test: Antiproliferative activity against human HepG2 cells assessed as reduction in cell viability incubated for 48 hrs by CCk-8 assay; type: functional, cell-based; settings: HepG2, 48 h
MDA-MB-231 [1] = test: Antiproliferative activity against human MDA-MB-231 cells assessed as reduction in cell viability incubated for 48 hrs by CCk-8 assay; type: functional, cell-based; settings: MDA-MB-231, 48 h
MDA-MB-231 [2] = test: Induction of cell cycle arrest in human MDA-MB-231 cells assessed as accumulation of cells at S phase at 82.5 nM incubated for 48 hrs by flow cytometry analysis (reference value: 36.51%); type: functional
MDA-MB-231 [3] = test: Induction of cell cycle arrest in human MDA-MB-231 cells assessed as accumulation of cells at G2 phase at 82.5 nM incubated for 48 hrs by flow cytometry analysis (reference value: 16.05 %); type: functional
MDA-MB-231 [4] = test: Induction of cell cycle arrest in human MDA-MB-231 cells assessed as accumulation of cells at G1 phase at 0.165 uM incubated for 48 hrs by flow cytometry analysis (reference value: 47.44 %); type: functional
MDA-MB-231 [5] = test: Induction of cell cycle arrest in human MDA-MB-231 cells assessed as accumulation of cells at S phase at 0.165 uM incubated for 48 hrs by flow cytometry analysis (reference value: 36.51%); type: functional
MDA-MB-231 [6] = test: Induction of cell cycle arrest in human MDA-MB-231 cells assessed as accumulation of cells at G2 phase at 0.165 uM incubated for 48 hrs by flow cytometry analysis (reference value: 16.05 %); type: functional
MDA-MB-231 [7] = test: Induction of cell cycle arrest in human MDA-MB-231 cells assessed as accumulation of cells at G1 phase at 0.33 uM incubated for 48 hrs by flow cytometry analysis (reference value: 47.44 %); type: functional
MDA-MB-231 [8] = test: Induction of cell cycle arrest in human MDA-MB-231 cells assessed as accumulation of cells at S phase at 0.33 uM incubated for 48 hrs by flow cytometry analysis (reference value: 36.51%); type: functional
MDA-MB-231 [9] = test: Induction of apoptosis in human MDA-MB-231 cells assessed as early apoptotic cells at 82.5 nM incubated for 48 hrs by Annexin-V/FITC-PI staining based flow cytometry analysis (reference value: 2.93 %); type: functional
MDA-MB-231 [10] = test: Induction of apoptosis in human MDA-MB-231 cells assessed as necrotic cells at 82.5 nM incubated for 48 hrs by Annexin-V/FITC-PI staining based flow cytometry analysis (reference value: 0.99 %); type: functional
MDA-MB-231 [11] = test: Induction of apoptosis in human MDA-MB-231 cells assessed as viable cells at 0.165 uM incubated for 48 hrs by Annexin-V/FITC-PI staining based flow cytometry analysis (reference value: 93.74 %); type: functional; settings: read-out: Activity
MDA-MB-231 [12] = test: Induction of apoptosis in human MDA-MB-231 cells assessed as necrotic cells at 0.165 uM incubated for 48 hrs by Annexin-V/FITC-PI staining based flow cytometry analysis (reference value: 0.99 %); type: functional
MDA-MB-231 [13] = test: Induction of apoptosis in human MDA-MB-231 cells assessed as viable cells at 0.33 uM incubated for 48 hrs by Annexin-V/FITC-PI staining based flow cytometry analysis (reference value: 93.74 %); type: functional; settings: read-out: Activity
MDA-MB-231 [14] = test: Induction of apoptosis in human MDA-MB-231 cells assessed as early apoptotic cells at 0.33 uM incubated for 48 hrs by Annexin-V/FITC-PI staining based flow cytometry analysis (reference value: 2.93 %); type: functional
MDA-MB-231 [15] = test: Induction of apoptosis in human MDA-MB-231 cells assessed as late apoptotic cells at 0.33 uM incubated for 48 hrs by Annexin-V/FITC-PI staining based flow cytometry analysis (reference value: 2.34 %); type: functional
Cell membrane [16] = test: Induction of mitochondrial membrane potential loss in human MDA-MB-231 cells assessed as proportion of MMP decreased cells at 82.5 nM and measured for 48 hrs by JC-1 staining based flow cytometry assay (reference value: 4.40%); type: subcellular; design: scale not given: the % may be the effect or the level left
Cell membrane [17] = test: Induction of mitochondrial membrane potential loss in human MDA-MB-231 cells assessed as proportion of MMP decreased cells at 0.165 uM and measured for 48 hrs by JC-1 staining based flow cytometry assay (reference value: 4.40%); type: subcellular; design: scale not given: the % may be the effect or the level left
Cell membrane [18] = test: Induction of mitochondrial membrane potential loss in human MDA-MB-231 cells assessed as proportion of MMP decreased cells at 0.33 uM and measured for 48 hrs by JC-1 staining based flow cytometry assay (reference value: 4.40%); type: subcellular; design: scale not given: the % may be the effect or the level left
MDA-MB-231 [19] = test: Induction of DNA damage in human MDA-MB-231 cells assessed as tail DNA at 82.5 nM incubated for 48 hrs by Comet assay (reference value: 0.007 %); type: functional
MDA-MB-231 [20] = test: Induction of DNA damage in human MDA-MB-231 cells assessed as tail DNA at 0.33 uM incubated for 48 hrs by Comet assay (reference value: 0.007 %); type: functional
MDA-MB-231 [21] = test: Inhibition of cell adhesion in human MDA-MB-231 cells assessed as reduction in cell adhesion by measuring fluorescence intensity at 82.5 to 330 nM incubated for 48 hrs by flow cytometry analysis; type: functional, cell-based; settings: dose 82.5-330 nM
MDA-MB-231 [22] = test: Inhibition of cell migration in human MDA-MB-231 cells assessed as wound healing rate at 82.5 nM measured immediately by scratch wound healing assay (Rvb= 871.53 +/- 3.02 %); type: functional; design: scale not given: the % may be the effect or the level left
MDA-MB-231 [23] = test: Inhibition of cell migration in human MDA-MB-231 cells assessed as wound healing rate at 0.165 uM measured immediately by scratch wound healing assay (Rvb= 871.53 +/- 3.02 %); type: functional; design: scale not given: the % may be the effect or the level left
MDA-MB-231 [24] = test: Inhibition of cell migration in human MDA-MB-231 cells assessed as wound healing rate at 0.33 uM measured immediately by scratch wound healing assay (Rvb= 871.53 +/- 3.02 %); type: functional; design: scale not given: the % may be the effect or the level left
MDA-MB-231 [25] = test: Inhibition of cell migration in human MDA-MB-231 cells assessed as wound healing rate at 82.5 nM measured for 24 hrs by scratch wound healing assay (Rvb= 230.22 +/- 32.21 %); type: functional; design: scale not given: the % may be the effect or the level left
MDA-MB-231 [26] = test: Inhibition of cell migration in human MDA-MB-231 cells assessed as wound healing rate at 0.165 uM measured for 24 hrs by scratch wound healing assay (Rvb= 230.22 +/- 32.21 %); type: functional; design: scale not given: the % may be the effect or the level left
MDA-MB-231 [27] = test: Inhibition of cell migration in human MDA-MB-231 cells assessed as wound healing rate at 0.33 uM measured for 24 hrs by scratch wound healing assay (Rvb= 230.22 +/- 32.21 %); type: functional; design: scale not given: the % may be the effect or the level left
MDA-MB-231 [28] = test: Inhibition of cell invasion in human MDA-MB-231 cells incubated for 24 hrs by crystal violet staining based transwell assay; type: functional; settings: dose 82.5-330 nM

C[C@H]1CCC/C=C/[C@@H]2C[C@H](O)C[C@H]2[C@H](OC(=O)CCCC(=O)OCCOc2ccc(-c3cc(=S)ss3)cc2)/C=C/C(=O)O1
pIC50 (A549): 6.24
pIC50 (DU-145): 6.16
pIC50 (HeLa): 6.07
pIC50 (HepG2): 6.12
pIC50 (MDA-MB-231 [1]): 6.48
Activity (MDA-MB-231 [2]): 30.23%
Activity (MDA-MB-231 [3]): 13.5%
Activity (MDA-MB-231 [4]): 60.09%
Activity (MDA-MB-231 [5]): 30.39%
Activity (MDA-MB-231 [6]): 9.52%
Activity (MDA-MB-231 [7]): 69.88%
Activity (MDA-MB-231 [8]): 22.99%
Activity (MDA-MB-231 [9]): 10.01%
Activity (MDA-MB-231 [10]): 2.12%
viability at 0.165 µM (MDA-MB-231 [11]): 71.7%
Activity (MDA-MB-231 [12]): 1.87%
viability at 0.33 µM (MDA-MB-231 [13]): 43.2%
Activity (MDA-MB-231 [14]): 21.05%
Activity (MDA-MB-231 [15]): 31.61%
Activity (Cell membrane [16]): 16.3%
Activity (Cell membrane [17]): 31.7%
Activity (Cell membrane [18]): 49.8%
Activity (MDA-MB-231 [19]): 20.49%
Activity (MDA-MB-231 [20]): 49.49%
inhibition (MDA-MB-231 [21]): Active
Activity (MDA-MB-231 [22]): 832.33%
Activity (MDA-MB-231 [23]): 830.55%
Activity (MDA-MB-231 [24]): 844.92%
Activity (MDA-MB-231 [25]): 383.42%
Activity (MDA-MB-231 [26]): 465.92%
Activity (MDA-MB-231 [27]): 610.67%
inhibition (MDA-MB-231 [28]): Dose-Dependent Effect
